Tests used:
Coagulation factor X = Coagulation factor X (Homo sapiens, UniProt P00742); experiment: Inhibition of human factor 10a by spectrophotometric assay
Coagulation factor XI = Coagulation factor XI (Homo sapiens, UniProt P03951); experiment: Inhibition of human factor 11a by spectrophotometric assay
Prothrombin = Prothrombin (Homo sapiens, UniProt P00734); experiment: Inhibition of human thrombin using spectrozyme TH as substrate by spectrophotometric assay
[1] = Anticoagulant activity in human […] assessed as concentration required to double activated partial thromboplastin time; type: functional
[2] = Anticoagulant activity in human […] assessed as concentration required to double prothrombin time; type: functional

Sequence of Coagulation factor XI (P03951 19-387 limits assumed): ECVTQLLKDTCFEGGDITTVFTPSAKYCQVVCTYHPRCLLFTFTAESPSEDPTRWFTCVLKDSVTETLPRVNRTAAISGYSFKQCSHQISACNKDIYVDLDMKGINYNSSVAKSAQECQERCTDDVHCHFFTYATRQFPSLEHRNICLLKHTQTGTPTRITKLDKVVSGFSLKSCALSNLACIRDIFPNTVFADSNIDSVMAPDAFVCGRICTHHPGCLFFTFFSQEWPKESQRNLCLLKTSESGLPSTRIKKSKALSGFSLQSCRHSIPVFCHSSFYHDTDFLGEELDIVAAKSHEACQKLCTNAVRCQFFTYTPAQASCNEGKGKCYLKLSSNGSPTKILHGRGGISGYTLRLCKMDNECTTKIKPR
Sequence of Coagulation factor XI (P03951 388-625 limits assumed): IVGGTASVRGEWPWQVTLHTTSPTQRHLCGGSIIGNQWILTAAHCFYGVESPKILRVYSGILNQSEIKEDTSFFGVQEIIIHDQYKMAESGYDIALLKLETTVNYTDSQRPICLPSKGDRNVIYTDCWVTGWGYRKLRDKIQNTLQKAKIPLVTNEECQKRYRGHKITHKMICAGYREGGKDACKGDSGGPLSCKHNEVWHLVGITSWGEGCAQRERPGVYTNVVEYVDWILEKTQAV
Sequence of Coagulation factor X (P00742 41-179 limits assumed): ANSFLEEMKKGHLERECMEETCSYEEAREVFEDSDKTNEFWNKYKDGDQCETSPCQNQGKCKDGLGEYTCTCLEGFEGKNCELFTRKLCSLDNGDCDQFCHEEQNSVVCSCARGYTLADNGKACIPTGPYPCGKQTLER
Sequence of Coagulation factor X (P00742 235-488 limits assumed): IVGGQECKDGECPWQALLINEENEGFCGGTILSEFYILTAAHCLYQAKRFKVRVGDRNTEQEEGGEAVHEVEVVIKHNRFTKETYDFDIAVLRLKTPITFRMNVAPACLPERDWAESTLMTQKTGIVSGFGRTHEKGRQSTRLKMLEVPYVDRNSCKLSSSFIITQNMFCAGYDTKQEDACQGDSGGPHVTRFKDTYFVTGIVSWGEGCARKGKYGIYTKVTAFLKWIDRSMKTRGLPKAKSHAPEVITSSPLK

| Compound | IC50 (Coagulation factor X; read-out: IC50) [µM] | IC50 (Coagulation factor XI; read-out: IC50) [µM] | IC50 (Prothrombin) [µM] | IC50 (Coagulation factor X) | IC50 (Coagulation factor XI) | 2aPTT [1] [µM] | 2PT [2] [µM] |
| --- | --- | --- | --- | --- | --- | --- | --- |
| COc1cc2occ(C(=O)OC(C)(C)C)c2cc1OCc1nc2ccc(OS(=O)(=O)O)cc2s1 | 352 | 124 | 146 |  |  |  |  |
| Cc1nc2ccc(OCc3nc4ccc(OS(=O)(=O)[O-])cc4s3)cc2s1.[Na+] |  |  | 327 | Not Active | Not Active |  |  |
| CCOC(=O)c1c(COc2cc3c(C(=O)OCC)c(Cc4ccccc4)oc3cc2OC)[nH]c2ccc(OS(=O)(=O)[O-])cc12.[Na+] | 195 | 118 | 327 |  |  | 1021 | 2361 |
| CCOC(=O)c1c(C)[nH]c2ccc(OCc3c(C(=O)OCC)c4cc(OS(=O)(=O)[O-])ccc4n3C(=O)OC(C)(C)C)cc12.[Na+] | 229 | 220 | 425 |  |  | 424 | 1475 |
| CCOC(=O)c1c(COc2cc3c(C(=O)OCC)c(COc4cc5c(C(=O)OCC)c(C)oc5cc4OC)oc3cc2OC)[nH]c2ccc(OS(=O)(=O)[O-])cc12.[Na+] | 344 | 86.9 | 304 |  |  | 755 | 845 |

— ChEMBL document CHEMBL3351582, “A simple, general approach of allosteric coagulation enzyme inhibition through monosulfated hydrophobic scaffolds” (Bioorg Med Chem Lett, 2014)
